For two molecules, viscosity results are on record in the NIST ThermoML archive (doi:10.1016/j.jct.2009.08.009).

For orientation: viscosity means the resistance of a fluid to flow.

The nature of the data set: xn = mol fraction of the nth substance listed. To be noted: 101 kPa, Liquid, Capillary tube (Ostwald / Ubbelohde) method, x2 = 0.

± gives the expanded uncertainty stated by the source.

Consider `CCCCCCCCCCO` [decan-1-ol] + CCOCCOCCO, for which the viscosity runs as follows: (293.15 K) 13.04 ± 0.067 mPa·s; (298.15 K) 11.19 ± 0.059 mPa·s; (303.15 K) 9.066 ± 0.049 mPa·s; (308.15 K) 7.459 ± 0.042 mPa·s.

In the case of `CCCCCCCCO` [octan-1-ol] + CCOCCOCCO, the viscosity by setting is: (293.15 K) 8.309 ± 0.045 mPa·s; (298.15 K) 7.143 ± 0.04 mPa·s; (303.15 K) 5.969 ± 0.035 mPa·s; (308.15 K) 5.009 ± 0.03 mPa·s.
